Experimental findings from article PMC7827014, “Synthetic Transition from Thiourea-Based Compounds to Tetrazole Derivatives: Structure and Biological Evaluation of Synthesized New N-(Furan-2-ylmethyl)-1H-tetrazol-5-amine Derivatives” (Molecules, 2021) are described below.

Each structure is given as a SMILES string. In brackets after ≈: the same amount, converted by molar mass.

For the experiment, the system named is M. tuberculosis INH resistant (Spec. 210). As to the kind of experiment: In vitro antitubercular MIC. Type of experiment: cell-based. Particulars: Mycobacterium tuberculosis, read-out: Minimal inhibitory concentration.

Consider `Fc1ccc(-n2nnnc2NCc2ccco2)cc1` [Compound 1, 1-(4-fluorophenyl)-N-(furan-2-ylmethyl)-1H-tetrazol-5-amine], for which the MIC turned out to be 256 µg/mL (≈ 987 µM).
To `Cc1ccc(Cl)cc1-n1nnnc1NCc1ccco1` [Compound 2, 1-(5-chloro-2-methylphenyl)-N-(furan-2-ylmethyl)-1H-tetrazol-5-amine] belongs 512 µg/mL (≈ 1770 µM); to `Ic1ccc(-n2nnnc2NCc2ccco2)cc1` [Compound 3, N-(furan-2-ylmethyl)-1-(4-iodophenyl)-1H-tetrazol-5-amine], 512 µg/mL (≈ 1390 µM).
The result for `Clc1cccc(-n2nnnc2NCc2ccco2)c1` [Compound 4, 1-(3-chlorophenyl)-N-(furan-2-ylmethyl)-1H-tetrazol-5-amine] reads 256 µg/mL (≈ 929 µM).
To `Clc1ccc(-n2nnnc2NCc2ccco2)cc1Cl` [Compound 5, 1-(3,4-dichlorophenyl)-N-(furan-2-ylmethyl)-1H-tetrazol-5-amine] belongs more than 512 µg/mL; to `Fc1ccccc1-n1nnnc1NCc1ccco1` [Compound 6, 1-(2-fluorophenyl)-N-(furan-2-ylmethyl)-1H-tetrazol-5-amine], 256 µg/mL (≈ 987 µM).
In the case of `Brc1cccc(-n2nnnc2NCc2ccco2)c1` [Compound 7, 1-(3-bromophenyl)-N-(furan-2-ylmethyl)-1H-tetrazol-5-amine], the MIC was 256 µg/mL (≈ 800 µM).
As for `Clc1ccc(-n2nnnc2NCc2ccco2)cc1` [Compound 8, 1-(4-chlorophenyl)-N-(furan-2-ylmethyl)-1H-tetrazol-5-amine], the MIC turned out to be 256 µg/mL (≈ 929 µM).
`Fc1cccc(-n2nnnc2NCc2ccco2)c1` [Compound 9, 1-(3-fluorophenyl)-N-(furan-2-ylmethyl)-1H-tetrazol-5-amine]: the MIC is 256 µg/mL (≈ 987 µM).
With `Brc1ccc(-n2nnnc2NCc2ccco2)cc1` [Compound 10, 1-(4-bromophenyl)-N-(furan-2-ylmethyl)-1H-tetrazol-5-amine], the MIC is 512 µg/mL (≈ 1600 µM).
To `Clc1ccccc1-n1nnnc1NCc1ccco1` [Compound 11, 1-(2-chlorophenyl)-N-(furan-2-ylmethyl)-1H-tetrazol-5-amine] belongs 256 µg/mL (≈ 929 µM).
Consider `Brc1ccccc1-n1nnnc1NCc1ccco1` [Compound 12, 1-(2-bromophenyl)-N-(furan-2-ylmethyl)-1H-tetrazol-5-amine], for which the MIC turned out to be 256 µg/mL (≈ 800 µM).
To `NNC(=O)c1ccncc1` [INH, isoniazid, reference compound] belongs 2 µg/mL (≈ 14.6 µM).
